The values that follow come from US11254706B2, “Peptide and its derivatives capable of inhibiting replication of hepatitis V virus in human adipose-derived stem cells and hepatocytes” (Inno Bio-Drug Development Limited, priority 2015, dated 2022).

Ends that are not written are not given here.

Series [1] relates to serum-borne HCV (genotype 1b). The series can be described thus: Replication of serum-borne HCV in hADSC (qRT-PCR of 5′-UTR). Format: cell-based. The conditions noted are these: p5 hADSC, peptide 1, 10 and 100 μg/ml (control peptide 100 μg/ml) added 1 h before HCV(+) serum genotype 1b, day 21 post-infection; for viral (5′-UTR) copy numbers in the supernatant: FIG. 1A; for viral (5′-UTR) copy numbers in cell lysates: FIG. 1B. The source says:
FIG. 1. […] Data are expressed as mean±SD from 3 experiments. […] Data are expressed as mean±SD from 3 experiments.
We next examined the effect of a peptide composed of 14 amino acids DEAQETAVSSHEQD (SEQ ID NO: 1) (designated as DEA), and its derivatives QETAVSSHEQD (SEQ ID NO: 3) (designated as QET) and DEAQETAVSSHEQ (SEQ ID NO: 2) (designated DEA-Q) as prepared in Example 1, in the replication of serum-borne HCV in hADSC and in human primary hepatocytes. […] (SEQ ID NO: 4)^10. […] In contrast, pretreatment with control peptide had no effects.
Background: Real-time PCR tracks product formation cycle by cycle.

Another series concerns HCVser (genotype 1b). As to conditions: for HCV copy numbers: at some concentrations (such as 10 and 100 μg/ml); for HCVser replication in human hepatocytes (cellular 5′-UTR RNA): pretreatment 1 h before HCVser-1b, five days post-infection, FIG. 1C. As for the experimental part:
FIG. 1. […] (A and B) Concentrations of 1, 10 and 100 μg/ml of DEA, DEA-Q and QET peptides were added into the culture of p5 hADSC for 1 h before exposure to HCV(+) serum (genotype 1b). HLA-A11 restricted, Epstein-Barr virus-specific peptide epitope […] was used as a control (irrelevant) peptide. On day 21 post-infection, the 5′-UTR copy numbers in the supernatant (A) and cell lysates (B) were quantified by qRT-PCR. Data are expressed as mean±SD from 3 experiments. (C) Concentrations of 1, 10 and 100 μg/ml of DEA, DEA-Q and QET peptides were added into the culture of primary human hepatocytes 1 h before exposure to HCVser (genotype 1b). Five days post-infection, the cellular RNAs were extracted for RT-PCR of 5′-UTR. Data are expressed as mean±SD from 3 experiments.
Human hepatocytes were isolated from the non-tumoural part away from the lesion, as described^11. Hepatocytes were left for 3 days to allow attachment onto plastic wells, and subsequently exposed to the HCVser-1b with or without pretreatment with control peptide, DEA, DEA-Q or QET peptide. Five days post-infection, the cellular RNAs were extracted for RT-PCR of 5′-UTR.

As for “CSSCSSCPLSK (HLA-A11 restricted, Epstein-Barr virus-specific peptide epitope) [control peptide, reference compound]”, in series [1], the “viral (5′-UTR) copy numbers in the supernatant” value (“viral … in the supernatant” below) is reported as “no effects” and the “viral (5′-UTR) copy numbers in cell lysates” value (“viral … in cell lysates” for short) was “no effects”.

In the case of DEAQETAVSSHEQ-OH [DEA-Q, DEAQETAVSSHEQ], in series [1], the “viral … in the supernatant” value is recorded as “significantly reduced” and the “viral … in cell lysates” value was “significantly reduced”. In the series on HCVser (genotype 1b), the HCV copy numbers result was “under detection limit” and the “HCVser replication in human hepatocytes (cellular 5′-UTR RNA)” value (shortened to “HCVser replication in human hepatocytes”) is “significantly inhibited”.

Consider DEAQETAVSSHEQD-OH [DEA, DEAQETAVSSHEQD], for which, in series [1], the “viral … in the supernatant” value is “significantly reduced” and the “viral … in cell lysates” value is “significantly reduced”. Besides, in the series with HCVser (genotype 1b), the HCV copy numbers result is listed as “under detection limit” and the “HCVser replication in human hepatocytes” value is given as “significantly inhibited”.

In the case of QETAVSSHEQD-OH [QET, QETAVSSHEQD], in series [1], the “viral … in the supernatant” value is “significantly reduced” and the “viral … in cell lysates” value is reported as “significantly reduced”. Also, in the series with HCVser (genotype 1b), the HCV copy numbers entry was “under detection limit” and the “HCVser replication in human hepatocytes” value is recorded as “significantly inhibited”.
